The values that follow come from patent US8246943B2, “Prebiotic composition” (Conopco, Inc., priority 2009, dated 2012).

In assay [1] the test system is Clostridia (C. histolyticum and C. perfringens). Format: cell-based.
In assay [2] the test system is Bifidobacteria. The assay can be described thus: 3 stage in vitro gut model, bacterial populations. Type of assay: cell-based.
For assay [3], the system named is Eubacterium rectale and Clostridium coccoides. The assay can be described thus: 3 stage in vitro gut model, bacterial populations. Type of assay: cell-based.
Assay [4] relates to bifidobacteria. The settings on record: background statement; cited from earlier work.
In the next assay the test system is Bacteroides. The assay can be described thus: 3 stage in vitro gut model, bacterial populations. Format: cell-based.
The nature of assay [5]: prebiotic effect of black tea flavonoid components (test not described). The settings on record: statement in the description, no test given.
Setting [6] is: SS1 (steady state without test substrate), vessel 1.
[7] abbreviates: SS1 (steady state without test substrate), vessel 2.
The mark [8] stands for this setting: SS1 (steady state without test substrate), vessel 3.
Setting [9] is: SS2 (steady state with substrate added daily), vessel 1.
The mark [10] stands for this setting: SS2 (steady state with substrate added daily), vessel 2.
The mark [11] stands for this setting: SS2 (steady state with substrate added daily), vessel 3.

“And” between values parts separate entries of the source, which are not always exact repeats. Identical values can stand only once.

Inulin: the “Clostridia (C. histolyticum and C. perfringens) population” value in assay [1] is 5.67 Log 10 cells/ml of culture fluid and 5.84 Log 10 cells/ml of culture fluid and 5.49 Log 10 cells/ml of culture fluid and 5.89 Log 10 cells/ml of culture fluid and 5.59 Log 10 cells/ml of culture fluid. Also, the Bifidobacteria population in the assay with Bifidobacteria [2] (setting [6]) is reported as 7.62 Log 10 cells/ml of culture fluid; in the assay on Bifidobacteria [2] (setting [7]) it was 7.52 Log 10 cells/ml of culture fluid; in the assay with Bifidobacteria [2] (setting [8]), 7.49 Log 10 cells/ml of culture fluid; in the assay on Bifidobacteria [2] (setting [9]), 8.45 Log 10 cells/ml of culture fluid; with Bifidobacteria [2] (setting [10]), 8.26 Log 10 cells/ml of culture fluid; in the assay on Bifidobacteria [2] (setting [11]) it was 8.15 Log 10 cells/ml of culture fluid. Moreover, in the assay on Bifidobacteria [2] (SS1 vs SS2, 1.33 g digested black tea solids per day (2.40 g before digestion), 5 g/day inulin), the “prebiotic effect in gut model (in words)” value is given as “achieved a similar effect”. Further, the “Eubacterium rectale and Clostridium coccoides population” value was 9.14 Log 10 cells/ml of culture fluid in assay [3] (setting [6]); 9.19 Log 10 cells/ml of culture fluid in assay [3] (setting [7]); 9.17 Log 10 cells/ml of culture fluid in assay [3] (setting [8]); 9.37 Log 10 cells/ml of culture fluid in assay [3] (setting [9]); 9.28 Log 10 cells/ml of culture fluid in assay [3] (setting [10]); 9.20 Log 10 cells/ml of culture fluid in assay [3] (setting [11]). In the assay on bifidobacteria [4], the bifidobacteria in humans entry is reported as “significantly increase bifidobacteria”. The Bacteroides population is given as 7.23 Log 10 cells/ml of culture fluid in the assay with Bacteroides (setting [6]); 8.53 Log 10 cells/ml of culture fluid with Bacteroides (setting [7]); 8.35 Log 10 cells/ml of culture fluid with Bacteroides (setting [8]); 6.36 Log 10 cells/ml of culture fluid in the assay with Bacteroides (setting [9]); 8.81 Log 10 cells/ml of culture fluid in the assay with Bacteroides (setting [10]); 8.55 Log 10 cells/ml of culture fluid in the assay on Bacteroides (setting [11]).

On to catechins, for which the “prebiotic effect (in words)” value in assay [5] was “appear to reduce the prebiotic effect of thearubigins”.

As for fructo-oligosaccharides, the bifidobacteria in humans entry with bifidobacteria [4] is on record as “significantly increase bifidobacteria”.

With theaflavins, the “prebiotic effect (in words)” value in assay [5] is given as “little or no prebiotic effect”.
